{"source": "patent US20230339991A1", "about": "“HYPOXIA-ACTIVATED DNA ALKYLATING AGENT AND MEDICAL USE THEREOF” (ASCENTAWITS PHARMACEUTICALS, LTD., priority 2020, published 2023)", "key": {"Panc 10.05": {"test_system": "Panc 10.05", "test": "Cytotoxicity, pancreatic cancer PA cells Panc 10.05", "format": "cell-based", "conditions": "Homo sapiens, Panc1005", "method": "(§1) Compounds were exposed at various concentrations for 72 hours, followed by a wash step. Fresh medium was added for growth. The cell was stained to determine the cell survival rate and compared with controls treated with medium only.\n(§2) In particular, exponentially grown cells were inoculated in 96-well plates at a density of 2×10^3 cells/100 μl/well and incubated for 24 hours at 37° C. and under the conditions of 5% CO2, 95% air and 100% relative humidity before addition of 99 μl of culture solution. The compounds were dissolved in 100% DMSO at 200 times of the desired final test concentration. When the drug was added, an aliquot of 1 μl of the compound at the specified concentration was added to microwells already containing 199 μl of medium to obtain the reported final drug concentration. After adding the drug, plates were incubated for an additional 72 hours at 37° C., 5% CO2, 95% air and 100% relative humidity. The cell assay plate was left to balance for 30 minutes at room temperature and 100 μL of medium was removed from per well. 100 μl CTG reagent (CelltiterGlo kit) was added into each well. The plate was placed on a fast shaker and shaked for 2 min, and kept in dark at room temperature for 30 min. The chemiluminescence signal value was read by Envision instrument. […]"}, "NCI-H1792": {"test_system": "NCI-H1792", "test": "Cytotoxicity, NSCLC cell line NCI-H1792", "format": "cell-based", "conditions": "Homo sapiens", "method": "as §1, §2"}, "MIA PaCa-2": {"test_system": "MIA PaCa-2", "test": "Cytotoxicity, pancreatic cancer PA cells MIA PaCa-2", "format": "cell-based", "conditions": "Homo sapiens", "method": "as §1, §2"}, "[1]": {"test_system": "HuPrime model GA6201 human gastric cancer subcutaneous transplantation PDX tumor", "test": "GA6201 human gastric cancer subcutaneous PDX model", "format": "in vivo, BALB/c nude mice", "method": "Then the dose was changed to 10 mg/kg by intraperitoneal injection administration daily for 4 days (QD×4, Day14-Day17). The dose and mode of administration were then changed to 20 mg/kg via tail vein injection for one day (QD×1, Day18). After drug withdrawal for 10 days, the dose was changed again, and 50 mg/kg was administered via tail vein injection once a week for two weeks QW×2 (Day28, Day35).\nThe tumor volumes of mice from different groups were measured at different days and the average values were obtained."}, "NCI-H522": {"test_system": "NCI-H522", "test": "Cytotoxicity, NSCLC cell line NCI-H522", "format": "cell-based", "conditions": "Homo sapiens", "method": "as §1, §2"}, "HPAF-II": {"test_system": "HPAF-II", "test": "Cytotoxicity, pancreatic cancer PA cells HPAF-II", "format": "cell-based", "conditions": "Homo sapiens", "method": "as §1, §2"}, "NCI-H2110": {"test_system": "NCI-H2110", "test": "Cytotoxicity, NSCLC cell line NCI-H2110", "format": "cell-based", "conditions": "Homo sapiens", "method": "as §1, §2"}, "KP-3": {"test_system": "KP-3", "test": "Cytotoxicity, pancreatic cancer PA cells KP-3", "format": "cell-based", "conditions": "Homo sapiens", "method": "as §1, §2"}, "CFPAC1": {"test_system": "CFPAC1", "test": "Cytotoxicity, pancreatic cancer PA cells CFPAC1", "format": "cell-based", "conditions": "Homo sapiens, CFPAC-1", "method": "as §1, §2"}, "AsPC-1": {"test_system": "AsPC-1", "test": "Cytotoxicity, pancreatic cancer PA cells AsPC-1", "format": "cell-based", "conditions": "Homo sapiens, ASPC1", "method": "as §1, §2"}, "QGP-1": {"test_system": "QGP-1", "test": "Cytotoxicity, pancreatic cancer PA cells QGP-1", "format": "cell-based", "conditions": "Homo sapiens", "method": "as §1, §2"}, "PL45": {"test_system": "PL45", "test": "Cytotoxicity, pancreatic cancer PA cells PL45", "format": "cell-based", "conditions": "Homo sapiens", "method": "as §1, §2"}, "H460 cancer cells": {"test_system": "H460 cancer cells", "test": "Cytotoxicity on H460 cancer cells, 72 h exposure, CTG", "format": "cell-based", "conditions": "Homo sapiens, NCI-H460", "method": "The quantification value IC50 for cytotoxicity of a human tumor cell line in vitro was used to compare the cancer cell proliferation inhibition of compounds\nas §1\nIn particular, exponentially grown cells were inoculated in 96-well plates at a density of 2×10^3 cells/100 μl/well and incubated for 24 hours at 37° C. and under the conditions of 5% CO2, 95% air and 100% relative humidity before addition of 99 μl of culture solution. The compounds were dissolved in 100% DMSO at 200 times of the desired final test concentration. When the drug was added, an aliquot of 1 μl of the compound at the specified concentration was added to microwells already containing 199 μl of medium to obtain the reported final drug concentration. After adding the drug, plates were incubated for an additional 72 hours at 37° C., 5% CO2, 95% air and 100% relative humidity. The cell assay plate was left to balance for 30 minutes at room temperature and 100 μL of medium was removed from per well. 100 μl CTG reagent (CelltiterGlo kit) was added into each well. […] The chemiluminescence signal value was read by Envision instrument."}, "[2]": {"test": "Maximal tolerance dose (MTD) test, compound C, two cycles", "format": "in vivo, ICR mice", "conditions": "both sexes, mouse, in vivo; intravenous; ICR mice; read-out: maximal tolerance dose (MTD), overall", "method": "(§3) 18 ICR mice, 9 females/9 males, were randomly divided into compound C 10 mg/kg group, 20 mg/kg group and 40 mg/kg group according to gender and body weight, with 3 females/3 males in each group. […] It was administered once a day for 5 continuous days, and recovered for 1 week after the last administration. […] To explore the maximal tolerance dose, two cycles of administration were required. The dosage was adjusted and the administration was continued for 5 days.\n(§4) The animals were closely observed for 2 h after administration on the administration day and once a day in the morning and once in the afternoon on the non-administration day. Body weight and dietary intake were measured twice a week during the test period. Dead animals and all surviving animals after 14 days from the last administration were subjected to autopsy. The autopsy was performed on the pathological organs, and histopathological examination of the pathological organs was performed."}, "ICR mice": {"test_system": "ICR mice", "test": "Maximal tolerance dose (MTD) test, compound C, two cycles", "format": "in vivo", "conditions": "for maximal tolerance dose: intravenous, ICR mice", "method": "as §3, §4"}, "[3]": {"test_system": "human lung cancer NCI-H460-Luc2 intracranial transplantation tumor", "conditions": "for mean biofluorescence value / TGI: 11 days after grouping", "method": "BALB/c nude mice were inoculated intracranially with human lung cancer NCI-H460-Luc2 cells to establish human lung cancer intracranial transplantation tumor model. […] The relative tumor inhibition rate TGI (%) was calculated based on tumor biofluorescence value and the efficacy was evaluated."}, "[4]": {"test_system": "murine intestinal cancer CT26 subcutaneous model", "test": "Murine intestinal cancer CT26 subcutaneous model", "format": "in vivo, BALB/c mice", "conditions": "30 mg/kg, tail vein, twice a week", "method": "BALB/c mice were subcutaneously inoculated with murine intestinal cancer CT26 cells to establish a murine intestinal cancer subcutaneous transplantation model. […] Anti-mouse PD-1 Ab 10 mg/kg in the single treatment group and in the combination treatment group with compound C 30 mg/kg was administered by intraperitoneal injection twice a week."}}, "note": "pIC50: −log10 of the molar value. Read-outs that look alike come from different tables or passages of the source.", "data": [{"compound": "O=[N+]([O-])c1ccc(C(OP(=O)(N2CC2)N2CC2)C(F)(F)F)c2ccccc12", "note": "(racemic) [Compound A]", "values": [{"measurement": "pIC50", "setting": "Panc 10.05", "result": 4.56}, {"measurement": "pIC50", "setting": "NCI-H1792", "result": 5.32}, {"measurement": "pIC50", "setting": "MIA PaCa-2", "result": 5.16}, {"measurement": "tumor volume", "setting": "[1]; Group 06, 5-50 mg/kg regimen, day 3", "result": 121.79, "unit": "mm^3"}, {"measurement": "tumor volume", "setting": "[1]; Group 06, 5-50 mg/kg regimen, day 10", "result": 153.46, "unit": "mm^3"}, {"measurement": "tumor volume", "setting": "[1]; Group 06, 5-50 mg/kg regimen, day 14", "result": 191.17, "unit": "mm^3"}, {"measurement": "tumor volume", "setting": "[1]; Group 06, 5-50 mg/kg regimen, day 28", "result": 280.86, "unit": "mm^3"}, {"measurement": "tumor volume", "setting": "[1]; Group 06, 5-50 mg/kg regimen, day 42", "result": 300.46, "unit": "mm^3"}, {"measurement": "tumor volume", "setting": "[1]; Group 06, 5 then 10 mg/kg i.p., 20 and 50 mg/kg i.v. (Table 10), day 0", "result": 94.24, "unit": "mm^3"}, {"measurement": "pIC50", "setting": "NCI-H522", "result": 4.72}, {"measurement": "pIC50", "setting": "HPAF-II", "result": 4.58}, {"measurement": "pIC50", "setting": "NCI-H2110", "result": 6.42}, {"measurement": "pIC50", "setting": "KP-3", "result": 4.58}, {"measurement": "pIC50", "setting": "CFPAC1", "result": 5.54}, {"measurement": "pIC50", "setting": "AsPC-1", "result": 4.90}, {"measurement": "pIC50", "setting": "QGP-1", "result": 5.20}, {"measurement": "pIC50", "setting": "PL45", "result": 4.77}]}, {"compound": "O=[N+]([O-])c1ccc([C@@H](OP(=O)(N2CC2)N2CC2)C(F)(F)F)c2ccccc12", "note": "(single isomer, unassigned) [Compound C]", "values": [{"measurement": "pIC50", "setting": "H460 cancer cells", "result": 7.11}, {"measurement": "MTD", "setting": "[2]", "result": "20 to 40", "unit": "mg/kg"}, {"measurement": "animal deaths after first cycle", "setting": "ICR mice; 10, 20 and 40 mg/kg i.v., continuous administration for 5 days", "result": "no animal death"}, {"measurement": "animal deaths", "setting": "ICR mice; 10/80 mg/kg group (first cycle 10, second cycle 80 mg/kg)", "result": "1/6"}, {"measurement": "animal deaths", "setting": "ICR mice; 20/60 mg/kg group", "result": "3/6"}, {"measurement": "animal deaths", "setting": "ICR mice; 40/40 mg/kg group", "result": "1/6"}, {"measurement": "maximal tolerance dose", "setting": "ICR mice; first cycle", "result": "> 40", "unit": "mg/kg"}, {"measurement": "maximal tolerance dose", "setting": "ICR mice; second cycle", "result": "< 40", "unit": "mg/kg"}, {"measurement": "mean biofluorescence value", "setting": "[3]; 10 mg/kg tail vein QW×3", "result": "7.07E+05", "unit": "photon/second"}, {"measurement": "TGI", "setting": "[3]; 10 mg/kg tail vein", "result": 99.82, "unit": "%"}, {"measurement": "mean biofluorescence value", "setting": "[3]; 20 mg/kg tail vein QW×3", "result": "1.79E+05", "unit": "photon/second"}, {"measurement": "TGI", "setting": "[3]; 20 mg/kg tail vein", "result": 100.03, "unit": "%"}, {"measurement": "mean biofluorescence value", "setting": "[3]; 40 mg/kg tail vein QW×3", "result": "1.04E+05", "unit": "photon/second"}, {"measurement": "TGI", "setting": "[3]; 40 mg/kg tail vein", "result": 100.05, "unit": "%"}, {"measurement": "tolerability", "setting": "[3]; single drug, 10-40 mg/kg", "result": "well tolerated"}, {"measurement": "median survival time", "setting": "[4]", "result": 19, "unit": "days"}]}]}
